Assay results published in the supplement of paper PMC10307832.

Legend:
Experiment in all cases: relative viability (nuclei count vs DMSO), 5 days (fraction); higher = more cells survive
Pazopanib + Palbociclib = compound: Cc1ccc(Nc2nccc(N(C)c3ccc4c(C)n(C)nc4c3)n2)cc1S(N)(=O)=O [Pazopanib] + CC(=O)c1c(C)c2cnc(Nc3ccc(N4CCNCC4)cn3)nc2n(C2CCCC2)c1=O [Palbociclib] (partner 0.5 µM)
Method in brief: (§1)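 A single step with final 0.05% Triton X-100, 1% formaldehyde and 1 ug/ml Hoechst fixed the cells and stained nuclei 5 days after treatment. Lung cancer cell lines in 1536-well plates had been treated by pin tool the day after seeding with one drug alone or a fixed anchor-drug dose plus five library-drug doses (not always all listed) in √10 steps, and nuclei were counted on 4× images. Relative viability is the ratio of nuclei in treated wells to nuclei in vehicle wells, taken as the median of duplicate plates.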

Ponatinib + Tozasertib = compound: Cc1ccc(C(=O)Nc2ccc(CN3CCN(C)CC3)c(C(F)(F)F)c2)cc1C#Cc1cnc2cccnn12 [Ponatinib] + Cc1cc(Nc2cc(N3CCN(C)CC3)nc(Sc3ccc(NC(=O)C4CC4)cc3)n2)n[nH]1 [Tozasertib] (partner 0.1 µM)
Method in brief: as §1

Pazopanib + Navitoclax = compound: Cc1ccc(Nc2nccc(N(C)c3ccc4c(C)n(C)nc4c3)n2)cc1S(N)(=O)=O [Pazopanib] + CC1(C)CCC(c2ccc(Cl)cc2)=C(CN2CCN(c3ccc(C(=O)NS(=O)(=O)c4ccc(N[C@H](CCN5CCOCC5)CSc5ccccc5)c(S(=O)(=O)C(F)(F)F)c4)cc3)CC2)C1 [Navitoclax] (partner 0.5 µM)
Method in brief: as §1

Pazopanib + Linsitinib = compound: Cc1ccc(Nc2nccc(N(C)c3ccc4c(C)n(C)nc4c3)n2)cc1S(N)(=O)=O [Pazopanib] + C[C@]1(O)C[C@@H](c2nc(-c3ccc4ccc(-c5ccccc5)nc4c3)c3c(N)nccn32)C1 [Linsitinib] (partner 1 µM)
Method in brief: as §1

| Cell Line | relative viability (Pazopanib + Palbociclib; first compound 0.01 µM) | relative viability (Pazopanib + Palbociclib; first compound 0.03162 µM) | relative viability (Pazopanib + Palbociclib; first compound 0.1 µM) | relative viability (Pazopanib + Palbociclib; first compound 0.3162 µM) | relative viability (Pazopanib + Palbociclib; first compound 1 µM) | relative viability (Ponatinib + Tozasertib; first compound 0.002 µM) | relative viability (Ponatinib + Tozasertib; first compound 0.006325 µM) | relative viability (Ponatinib + Tozasertib; first compound 0.06325 µM) | relative viability (Ponatinib + Tozasertib; first compound 0.2 µM) | relative viability (Pazopanib + Navitoclax; first compound 0.01 µM) | relative viability (Pazopanib + Navitoclax; first compound 0.03162 µM) | relative viability (Pazopanib + Navitoclax; first compound 0.1 µM) | relative viability (Pazopanib + Navitoclax; first compound 0.3162 µM) | relative viability (Pazopanib + Navitoclax; first compound 1 µM) | relative viability (Pazopanib + Linsitinib; first compound 0.01 µM) | relative viability (Pazopanib + Linsitinib; first compound 0.03162 µM) | relative viability (Pazopanib + Linsitinib; first compound 0.1 µM) | relative viability (Pazopanib + Linsitinib; first compound 0.3162 µM) | relative viability (Pazopanib + Linsitinib; first compound 1 µM) |
| --- | --- | --- | --- | --- | --- | --- | --- | --- | --- | --- | --- | --- | --- | --- | --- | --- | --- | --- | --- |
| HCC-44 | 0.921 | 0.932 | 0.943 | 0.982 | 0.948 | 0.946 | 0.882 | 0.87 | 0.595 | 0.87 | 0.896 | 1 | 0.82 | 0.984 | 0.575 | 0.673 | 0.678 | 0.582 | 0.722 |
| EKVX | 0.378 | 0.461 | 0.395 | 0.368 | 0.423 | 0.386 | 0.45 | 0.375 | 0.314 | 0.834 | 0.926 | 0.97 | 0.921 | 1.02 | 0.95 | 1.04 | 0.869 | 1.03 | 1.04 |
| NCI-H1651 | 0.51 | 0.555 | 0.523 | 0.489 | 0.555 | 0.685 | 0.662 | 0.563 | 0.531 | 1.1 | 1.16 | 1.17 | 1.12 | 1.16 | 1.11 | 0.901 | 0.886 | 0.982 | 1.08 |
| A-427 | 0.536 | 0.565 | 0.476 | 0.554 | 0.526 | 0.23 | 0.227 | 0.198 | 0.167 | 1.03 | 1.07 | 0.977 | 0.941 | 1.04 | 1.09 | 1.09 | 1.13 | 1.14 | 1.16 |
| NCI-H2405 | 0.467 | 0.531 | 0.535 | 0.519 | 0.583 | 0.728 | 0.809 | 0.711 | 0.681 | 0.903 | 0.985 | 1.05 | 1.27 | 1.07 | 0.729 | 1.12 | 1 | 1.12 | 1.02 |
| NCI-H1355 | 0.33 | 0.4 | 0.426 | 0.407 | 0.45 | 0.566 | 0.542 | 0.582 | 0.455 | – | 0.899 | 1.09 | 1.07 | 0.979 | – | 0.909 | 0.921 | 0.856 | 0.861 |
| SK-MES-1 | 0.334 | 0.352 | 0.322 | 0.36 | 0.304 | 0.828 | 0.909 | 0.964 | 0.842 | 1.29 | 1.32 | 1.42 | 1.3 | 1.15 | 0.983 | 1.01 | 1.12 | 1.15 | 1.02 |
| RERF-LC-KJ | 1.11 | 1.03 | 1.07 | 1.09 | 1.04 | 0.476 | 0.474 | 0.405 | 0.281 | 0.906 | 1.01 | 1.06 | 0.879 | 1.04 | 0.889 | 0.912 | 0.825 | 0.782 | 0.912 |
| NCI-H2228 | 0.892 | 0.75 | 0.848 | 0.756 | 0.779 | 0.225 | 0.286 | 0.161 | 0.234 | 0.847 | 1.1 | 1.03 | 0.98 | 0.913 | 0.741 | 0.665 | 0.792 | 0.901 | 0.607 |
| HOP-62 | 0.436 | 0.472 | 0.424 | 0.493 | 0.46 | 0.303 | 0.348 | 0.317 | 0.33 | 1.13 | 1.08 | 1.01 | 1.03 | 0.944 | 0.9 | 0.973 | – | 1 | 0.859 |
| HARA | 0.238 | 0.255 | 0.295 | 0.254 | 0.295 | 0.0958 | 0.111 | 0.0906 | 0.0762 | 1.2 | 1.03 | 1.13 | 1.15 | 1.2 | 0.916 | 0.862 | 1 | 1.03 | 1.03 |
| PC-14 | 0.561 | 0.585 | 0.568 | 0.719 | 0.6 | 0.527 | 0.628 | 0.609 | 0.472 | 1.06 | 1.06 | 1.09 | 0.954 | 0.948 | 0.971 | 1 | 0.961 | 0.985 | 1 |
| NCI-H1755 | 0.423 | 0.454 | 0.47 | 0.457 | 0.467 | 0.607 | 0.59 | 0.54 | 0.547 | 0.852 | 0.937 | 1.01 | 1 | 0.991 | 0.934 | 0.995 | 1.01 | 0.967 | 1.01 |
| HCC-78 | 0.465 | 0.511 | 0.4 | 0.462 | 0.432 | 0.385 | 0.511 | 0.404 | 0.33 | 0.493 | 0.813 | 0.796 | 0.828 | 0.694 | 0.403 | 0.578 | 0.435 | 0.454 | 0.668 |
| NCI-H441 | 0.24 | 0.248 | 0.198 | 0.211 | 0.273 | 0.602 | 0.529 | 0.588 | 0.488 | 0.516 | 0.493 | 1.12 | 0.553 | 0.765 | 0.536 | 0.528 | 0.558 | 0.5 | 0.612 |
| NCI-H322M | 0.495 | 0.522 | 0.478 | 0.482 | 0.55 | 0.429 | 0.412 | 0.41 | 0.423 | 1.03 | 1.19 | 1.27 | 1.36 | 1.24 | 0.772 | 1.06 | 0.899 | 1.05 | 0.972 |
